Assay results published in ChEMBL document CHEMBL1201862, “PubChem BioAssay data set” (2004).
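Dose response: 5 concentrations. Exposure: 48 h. Format: 96-well plates. Endpoint: linear interpolation; highest concentration if not reached. Here, GI50 denotes the concentration required for 50% inhibition of growth.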 Activity calls are given as the source filed them. No stated cut-off is given here; in the data, active = GI50 up to about 1.1 µM and inactive = higher.

What was measured:
Experiment in all cases: DTP human tumour cell line panel, 48 h
A549 = system: A549
HCT-116 = system: HCT-116
HOP-62 = system: HOP-62
HOP-92 = system: HOP-92
IGROV-1 = system: IGROV-1
K562 = system: K562
MCF7 = system: MCF7
MDA-MB-435 = system: MDA-MB-435
MDA-N = system: MDA-N
MOLT-4 = system: MOLT-4
Malme-3M = system: Malme-3M
NCI-H460 = system: NCI-H460
OVCAR-5 = system: OVCAR-5
RXF 393 = system: RXF 393
SF-539 = system: SF-539
SK-MEL-2 = system: SK-MEL-2
SW-620 = system: SW-620
TK-10 = system: TK-10
U-251 = system: U-251
UACC-257 = system: UACC-257

| Structure (SMILES) | GI50 (A549) | GI50 (HCT-116) | GI50 (HOP-62) | GI50 (HOP-92) | GI50 (IGROV-1) | GI50 (K562) | GI50 (MCF7) | GI50 (MDA-MB-435) | GI50 (MDA-N) | GI50 (MOLT-4) | GI50 (Malme-3M) | GI50 (NCI-H460) | GI50 (OVCAR-5) | GI50 (RXF 393) | GI50 (SF-539) | GI50 (SK-MEL-2) | GI50 (SW-620) | GI50 (TK-10) | GI50 (U-251) | GI50 (UACC-257) |
| --- | --- | --- | --- | --- | --- | --- | --- | --- | --- | --- | --- | --- | --- | --- | --- | --- | --- | --- | --- | --- |
| C=CC(=O)N1C/C(=C\c2ccccc2)C(=O)/C(=C/c2ccccc2)C1 | 2.92 µM (inactive) | 0.195 µM (active) | 2.33 µM (inactive) | 3.62 µM (inactive) | 1.97 µM (inactive) | 0.265 µM (active) | 0.5 µM (active) | 0.53 µM (active) | 0.318 µM (active) | 0.458 µM (active) | 2.15 µM (inactive) | 1.89 µM (inactive) | 2.49 µM (inactive) | 2.15 µM (inactive) | 1.58 µM (inactive) | 2.1 µM (inactive) | 0.259 µM (active) | 2.88 µM (inactive) | 0.877 µM (active) | 1.92 µM (inactive) |
| CCCCCCCCCCCCCC(=O)NO | 9.91 µM (inactive) | 8.85 µM (inactive) | 17.4 µM (inactive) | 15.8 µM (inactive) | 17.4 µM (inactive) | 3.03 µM (inactive) | 3.8 µM (inactive) | 25.3 µM (inactive) | 25.7 µM (inactive) | 0.492 µM (active) | 32.1 µM (inactive) | 11.8 µM (inactive) | 17.6 µM (inactive) | 5.75 µM (inactive) | 14.1 µM (inactive) | 23.5 µM (inactive) | 16.3 µM (inactive) | 19.9 µM (inactive) | 10.7 µM (inactive) | 29.2 µM (inactive) |
| CC(=O)OCCN1c2ccccc2Sc2cnccc21 | > 10 µM (inactive) | > 10 µM (inactive) | > 10 µM (inactive) | > 10 µM (inactive) | > 10 µM (inactive) | > 10 µM (inactive) | > 10 µM (inactive) | > 10 µM (inactive) | > 10 µM (inactive) | > 10 µM (inactive) | > 10 µM (inactive) | > 10 µM (inactive) | > 10 µM (inactive) | > 10 µM (inactive) | > 10 µM (inactive) | > 10 µM (inactive) | > 10 µM (inactive) | > 10 µM (inactive) | > 10 µM (inactive) | > 10 µM (inactive) |
| NCCCc1nonc1C(=O)O | > 100 µM (inactive) | > 100 µM (inactive) | > 100 µM (inactive) | > 100 µM (inactive) | > 100 µM (inactive) | > 100 µM (inactive) | > 100 µM (inactive) | > 100 µM (inactive) | > 100 µM (inactive) | > 100 µM (inactive) | > 100 µM (inactive) | > 100 µM (inactive) | > 100 µM (inactive) | > 100 µM (inactive) | > 100 µM (inactive) | > 100 µM (inactive) | > 100 µM (inactive) | > 100 µM (inactive) | > 100 µM (inactive) | > 100 µM (inactive) |
| CC1=NN(c2nc(N)nc(CBr)n2)C(C)(C)C1 | 12.6 µM (inactive) | 6.27 µM (inactive) | 19.7 µM (inactive) | 0.436 µM (active) | 1.49 µM (inactive) | 2.02 µM (inactive) | 2.47 µM (inactive) | 11 µM (inactive) | 11.5 µM (inactive) | 1.61 µM (inactive) | 2.45 µM (inactive) | 7.64 µM (inactive) | 3.71 µM (inactive) | 2.78 µM (inactive) | 2.3 µM (inactive) | 12.9 µM (inactive) | 4.19 µM (inactive) | 4.25 µM (inactive) | 6.76 µM (inactive) | 11.9 µM (inactive) |
| CCC(=O)C(C(C)/C=C/CCSc1ccccc1)C(O)CCCCCC(=O)OC (stereo not given) | 91.6 µM (inactive) | > 100 µM (inactive) | > 100 µM (inactive) | 13.7 µM (inactive) | > 100 µM (inactive) | 46.3 µM (inactive) | 66.4 µM (inactive) | > 100 µM (inactive) | > 100 µM (inactive) | 27.1 µM (inactive) | > 100 µM (inactive) | > 100 µM (inactive) | > 100 µM (inactive) | > 100 µM (inactive) | > 100 µM (inactive) | > 100 µM (inactive) | > 100 µM (inactive) | > 100 µM (inactive) | 77.8 µM (inactive) | 58.9 µM (inactive) |
| CC(C)(CN)SCc1ccccc1 | > 100 µM (inactive) | > 100 µM (inactive) | > 100 µM (inactive) | > 100 µM (inactive) | > 100 µM (inactive) | > 100 µM (inactive) | > 100 µM (inactive) | > 100 µM (inactive) | > 100 µM (inactive) | > 100 µM (inactive) | > 100 µM (inactive) | > 100 µM (inactive) | > 100 µM (inactive) | > 100 µM (inactive) | > 100 µM (inactive) | > 100 µM (inactive) | > 100 µM (inactive) | > 100 µM (inactive) | > 100 µM (inactive) | 28.7 µM (inactive) |
| CCOC(=O)c1c(N2CCOCC2)ncn(-c2cccc(Cl)c2)c1=O | > 100 µM (inactive) | > 100 µM (inactive) | > 100 µM (inactive) | > 100 µM (inactive) | > 100 µM (inactive) | > 100 µM (inactive) | > 100 µM (inactive) | > 100 µM (inactive) | > 100 µM (inactive) | > 100 µM (inactive) | > 100 µM (inactive) | > 100 µM (inactive) | > 100 µM (inactive) | > 100 µM (inactive) | > 100 µM (inactive) | > 100 µM (inactive) | > 100 µM (inactive) | > 100 µM (inactive) | > 100 µM (inactive) | > 100 µM (inactive) |
| Nc1ncnc2c1ncn2CC(O)C(=O)O (stereo not given) | > 100 µM (inactive) | > 100 µM (inactive) | > 100 µM (inactive) | > 100 µM (inactive) | > 100 µM (inactive) | > 100 µM (inactive) | > 100 µM (inactive) | > 100 µM (inactive) | > 100 µM (inactive) | > 100 µM (inactive) | > 100 µM (inactive) | > 100 µM (inactive) | > 100 µM (inactive) | > 100 µM (inactive) | > 100 µM (inactive) | > 100 µM (inactive) | > 100 µM (inactive) | > 100 µM (inactive) | > 100 µM (inactive) | > 100 µM (inactive) |
| COc1cccc(C2CC(C)(N3CCCC3)Oc3cc4c(cc32)OCO4)c1O (stereo not given) | 31.9 µM (inactive) | 13.2 µM (inactive) | 27 µM (inactive) | 31.3 µM (inactive) | 26.2 µM (inactive) | 9.31 µM (inactive) | 39.1 µM (inactive) | 4.39 µM (inactive) | 2.54 µM (inactive) | 21.8 µM (inactive) | 24.8 µM (inactive) | 28.2 µM (inactive) | 29.7 µM (inactive) | 26.7 µM (inactive) | 19.4 µM (inactive) | 16.5 µM (inactive) | 25.8 µM (inactive) | 37.3 µM (inactive) | 25.1 µM (inactive) | 35.4 µM (inactive) |
| CC(=O)OCC1OC(N2C(=O)CC(N)=Nc3ccccc32)C(OC(C)=O)C(OC(C)=O)C1OC(C)=O (stereo not given) | > 100 µM (inactive) | 81.8 µM (inactive) | 81.7 µM (inactive) | > 100 µM (inactive) | 45.1 µM (inactive) | 32.6 µM (inactive) | 29.4 µM (inactive) | 30.6 µM (inactive) | 32.7 µM (inactive) | 16.7 µM (inactive) | 28.9 µM (inactive) | 55.5 µM (inactive) | > 100 µM (inactive) | 23.1 µM (inactive) | 23.2 µM (inactive) | 48.4 µM (inactive) | 87.5 µM (inactive) | 75 µM (inactive) | 59.7 µM (inactive) | 32.4 µM (inactive) |
| CC(C)/C(Cl)=N/OC(=O)Nc1ccc(Br)cc1 | 18.2 µM (inactive) | 2.9 µM (inactive) | 16.9 µM (inactive) | 1.77 µM (inactive) | 13 µM (inactive) | 1.23 µM (inactive) | 7.66 µM (inactive) | 11 µM (inactive) | 4.83 µM (inactive) | 2.39 µM (inactive) | 1.69 µM (inactive) | 15 µM (inactive) | 14.6 µM (inactive) | 10.2 µM (inactive) | 13.2 µM (inactive) | 16.8 µM (inactive) | 2.2 µM (inactive) | 13.2 µM (inactive) | 18.7 µM (inactive) | 15.2 µM (inactive) |
| NC(=S)NS(=O)(=O)c1ccc(F)cc1F | > 100 µM (inactive) | > 100 µM (inactive) | > 100 µM (inactive) | > 100 µM (inactive) | > 100 µM (inactive) | > 100 µM (inactive) | > 100 µM (inactive) | > 100 µM (inactive) | > 100 µM (inactive) | > 100 µM (inactive) | > 100 µM (inactive) | > 100 µM (inactive) | > 100 µM (inactive) | > 100 µM (inactive) | > 100 µM (inactive) | > 100 µM (inactive) | > 100 µM (inactive) | > 100 µM (inactive) | > 100 µM (inactive) | > 100 µM (inactive) |
| O=c1cc(C(F)(F)F)c2cc3c(cc2o1)NCCC3 | > 100 µM (inactive) | 28.8 µM (inactive) | 17.1 µM (inactive) | 46.1 µM (inactive) | 97.3 µM (inactive) | > 100 µM (inactive) | 3.16 µM (inactive) | > 100 µM (inactive) | > 100 µM (inactive) | > 100 µM (inactive) | > 100 µM (inactive) | > 100 µM (inactive) | > 100 µM (inactive) | < 0.01 µM (active) | > 100 µM (inactive) | 78.3 µM (inactive) | > 100 µM (inactive) | > 100 µM (inactive) | 23.1 µM (inactive) | > 100 µM (inactive) |
